Source: US20240360154A1, “AROYL SUBSTITUTED TRICYCLIC COMPOUND, PREPARATION METHOD THEREFOR AND USE THEREOF” (GENFLEET THERAPEUTICS (SHANGHAI) INC., priority 2020, published 2024)
Structures can show the parent of a compound that is named as a salt.

How the values were obtained:
BTK (C481S) = BTK (C481S) (Homo sapiens (Human), UniProt Q06187, C481S); test: BTK C481S enzyme experiment (ADP-Glo kinase assay); type: biochemical; settings: 10 nM BTK C481S, ATP 125 μM, Poly(Glu4, Tyr1), 90 minutes at 20° C.
Method: (§1) A 3-fold gradient concentration stock solution of 1000× compound was prepared using DMSO and diluted 100-fold to 10× compound stock solution using reaction buffer (50 mM HEPES, pH 7.5, 0.0015% Briji-35, 2 mM DTT, 10 mM MgCl2), and the 10× compound stock solution was transferred to a 384-well plate. Enzyme reactions were set up with BTK Kinase Enzyme System (Promega Catalog #V2941) or BTK (C481S) Kinase Enzyme System (Promega Catalog #VA7033). First, a 2× enzyme solution containing 10 nM BTK or 10 nM BTK C481S was prepared with reaction buffer and added to the plate, and incubated with the compound for 10 minutes. […] Finally, the kinase activity was detected according to the experimental steps provided by ADP-Glo™ kinase Assay Kit (Promega, #V9101), and finally the luminescence chemiluminescence value was read. DMSO was used as the maximum signal value, and adding no enzyme was used as the minimum signal value. The inhibition rate of the compound (%)=(maximum signal value−compound signal value)/(maximum signal value−minimum signal value)×100% was calculated. The compound gradient dilution concentration and the corresponding inhibition rate of the enzyme activity were fit by using XLFit four-parameter method, and IC50 value was calculated.

TMD-8 cells = test: TMD-8 proliferation inhibition experiment; type: cell-based; settings: human diffuse large B lymphoma cells, three days incubation
Method: TMD-8 cells are human diffuse large B lymphoma (Mingzhou Bio, MZ-0832), cultured in 10% FBS+1% PS 1640 medium; OCI-LY10 is human diffuse large B lymphoma (BeNa Culture Collection, BNCC337742), cultured in 10% FBS+1% PS IMDM. Day 1: Cells at logarithmic growth phase were taken, counted and inoculated 600 TMD-8 or 2000 OCI-LY10 cells in a 384-well cell culture plate and cultured overnight. Day 2: A 3-fold gradient concentration stock solution of 400× compound was prepared with DMSO, and diluted 40-fold to a 10× compound stock solution with culture medium. The 10× compound stock solution was added to each cell culture well with a final concentration of 1× compound stock solution and a DMSO content of 0.25%. DMSO was used as experimental control, and culture medium was used as blank control. The incubation was continued for three days after compound addition. On the fifth day, 25 μL of […] was added to each well, mixed well and incubated for 10 minutes, then the chemiluminescence value (RLU value) was read. The cell proliferation inhibition rate (%)=(RLUcontrol−RLUcompound)/(RLUcontrol−RLUblank)×100% was calculated. The compound gradient dilution concentration and the corresponding cell proliferation inhibition rate were fit by using XLFit four-parameter method, and IC50 value was calculated.

BTK = BTK (Homo sapiens (Human), UniProt Q06187); test: BTK enzyme experiment (ADP-Glo kinase assay); type: biochemical; settings: 10 nM BTK, ATP 125 μM, Poly(Glu4, Tyr1), 90 minutes at 20° C.; read-out: BTK(WT) IC50
Method: as §1

BTK, sequence (Q06187 whole entry): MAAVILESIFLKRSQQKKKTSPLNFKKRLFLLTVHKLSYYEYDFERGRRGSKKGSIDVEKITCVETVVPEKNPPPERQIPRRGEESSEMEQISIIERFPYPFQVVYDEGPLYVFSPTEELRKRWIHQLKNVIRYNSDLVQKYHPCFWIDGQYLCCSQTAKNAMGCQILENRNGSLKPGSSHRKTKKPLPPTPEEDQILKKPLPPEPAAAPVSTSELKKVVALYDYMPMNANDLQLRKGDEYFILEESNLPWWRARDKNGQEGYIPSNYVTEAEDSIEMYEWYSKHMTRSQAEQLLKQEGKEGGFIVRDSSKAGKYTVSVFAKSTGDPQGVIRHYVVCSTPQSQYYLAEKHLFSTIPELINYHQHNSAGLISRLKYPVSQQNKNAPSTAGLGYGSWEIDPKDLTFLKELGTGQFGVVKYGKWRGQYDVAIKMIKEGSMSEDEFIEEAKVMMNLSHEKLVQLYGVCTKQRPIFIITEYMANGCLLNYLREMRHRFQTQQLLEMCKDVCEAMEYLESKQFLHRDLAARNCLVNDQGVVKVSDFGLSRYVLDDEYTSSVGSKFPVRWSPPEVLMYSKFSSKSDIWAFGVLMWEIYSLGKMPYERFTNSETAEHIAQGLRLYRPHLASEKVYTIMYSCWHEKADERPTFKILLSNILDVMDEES
BTK (C481S), sequence (Q06187 whole entry C481S): as the sequence (Q06187 whole entry) above, with C481S counted along it

Row | IC50 (BTK (C481S)) | IC50 (BTK) | Compound | IC50 (TMD-8 cells) | IC50 (TMD-8 cells; Homo sapiens, TMD8, 72 h) | IC50 (TMD-8 cells; TMD8, 72 h)
1 | 23.2 nM | 35.6 nM | COC[C@]1(C)Nc2c(cnc3[nH]cc(C(=O)c4ccc(Oc5ccccc5)cc4Cl)c23)N(CCO)C1=O [Z143] | 291 nM | – | –
2 | 18.9 nM | 41.2 nM | O=C(c1ccc(Oc2ccccc2)cc1Cl)c1c[nH]c2ncc3c(c12)NC1(CCOC1)C(=O)N3 (stereo not drawn) [Z1, 9′-(2-chloro-4-phenoxybenzoyl)-4,4′,5,7′-tetrahydro-2H-spiro[furan-3,2′-pyrrolo[3′,2′:5,6]pyrido[3,4-b]pyrazin]-3′(1′H)-one] | – | 156 nM | –
3 | 4.7 nM | 5 nM | O=C(c1ccc(Oc2ccccc2)cc1Cl)c1c[nH]c2ncc3c(c12)N[C@]1(CC[C@H](O)C1)C(=O)N3 (single isomer, unassigned) [Z24-2] | 63.1 nM | – | –
4 | 36 nM | 25.6 nM | [2H]C([2H])([2H])OC[C@]1(C)Nc2c(cnc3[nH]cc(C(=O)c4ccc(Oc5cccc(F)c5)cc4Cl)c23)NC1=O [Z162, (S)-9-(2-chloro-4-(3-fluorophenoxy)benzoyl)-2-((methoxy-d3)methyl)-2-methyl-1,2,4,7-tetrahydro-3H-pyrrolo[3′,2′:5,6]pyrido[3,4-b]pyrazin-3-one] | – | 169 nM | –
5 | 71.7 nM | 57.4 nM | CC1(C)Nc2c(cnc3[nH]cc(C(=O)c4ccc(Oc5ccccc5)cc4Cl)c23)N(CCO)C1=O [Z15] | 626 nM | – | –
6 | 14.5 nM | 22.8 nM | COCC1(C)Nc2c(cnc3[nH]cc(C(=O)c4ccc(Oc5cc(C6CC6)ccn5)cc4Cl)c23)NC1=O (stereo not drawn) [Z73, 9-(2-chloro-4-((4-cyclopropylpyridin-2-yl)oxy)benzoyl)-2-(methoxymethyl)-2-methyl-4,7-dihydro-1H-pyrrolo[3′,2′:5,6]pyrido[3,4-b]pyrazin-3(2H)-one] | – | 209 nM | –
7 | 23.6 nM | 67.1 nM | O=C(c1ccc(Oc2ccccc2)cc1Cl)c1c[nH]c2ncc3c(c12)N[C@@]1(CCOC1)C(=O)N3 (single isomer, unassigned) [Z1-1] | 183 nM | – | –
8 | 42.3 nM | 36.2 nM | [2H]C([2H])([2H])Oc1c(F)cccc1Oc1ccc(C(=O)c2c[nH]c3ncc4c(c23)N[C@@](C)(COC)C(=O)N4)c(Cl)c1 [Z178, (S)-9-(2-chloro-4-(3-fluoro-2-(methoxy-d3)phenoxy)benzoyl)-2-(methoxymethyl)-2-methyl-1,2,4,7-tetrahydro-3H-pyrrolo[3′,2′:5,6]pyrido[3,4-b]pyrazin-3-one] | – | 257 nM | –
9 | 12.1 nM | 11.2 nM | CCOC[C@]1(C)Nc2c(cnc3[nH]cc(C(=O)c4ccc(Oc5cc(C)ccn5)cc4Cl)c23)NC1=O [Z167, (S)-9-(2-chloro-4-((4-methylpyridin-2-yl)oxy)benzoyl)-2-(ethoxymethyl)-2-methyl-1,2,4,7-tetrahydro-3H-pyrrolo[3′,2′:5,6]pyrido[3,4-b]pyrazin-3-one] | – | 372 nM | –
10 | 26 nM | 45.8 nM | COCCOCC1(C)Nc2c(cnc3[nH]cc(C(=O)c4ccc(Oc5ccccc5)cc4Cl)c23)NC1=O (single isomer, unassigned) [Z153-1, 9-(2-chloro-4-phenoxybenzoyl)-2-((2-methoxyethoxy)methyl)-2-methyl-1,2,4,7-tetrahydro-3H-pyrrolo[3′,2′:5,6]pyrido[3,4-b]pyrazin-3-one] | – | 342 nM | –
11 | 18.4 nM | 26.5 nM | COC[C@]1(C)Nc2c(cnc3[nH]cc(C(=O)c4ccc(Oc5cccc(F)c5OC)cc4Cl)c23)NC1=O [Z173, (S)-9-(2-chloro-4-(3-fluoro-2-methoxyphenoxy)benzoyl)-2-(methoxymethyl)-2-methyl-1,2,4,7-tetrahydro-3H-pyrrolo[3′,2′:5,6]pyrido[3,4-b]pyrazin-3-one] | – | 366 nM | –
12 | 16.3 nM | 10 nM | [2H]C([2H])([2H])OC[C@]1(C)Nc2c(cnc3[nH]cc(C(=O)c4ccc(Oc5nccc(C)c5F)cc4Cl)c23)NC1=O [Z146, (S)-9-(2-chloro-4-((3-fluoro-4-methylpyridin-2-yl)oxy)benzoyl)-2-((methoxy-d3)methyl)-2-methyl-1,2,4,7-tetrahydro-3H-pyrrolo[3′,2′:5,6]pyrido[3,4-b]pyrazin-3-one] | – | 195 nM | –
13 | 73.9 nM | 54.2 nM | COC[C@]1(C)Nc2c(cnc3[nH]cc(C(=O)c4ccc(Oc5cccc(Cl)c5)cc4Cl)c23)NC1=O [Z165, (S)-9-(2-chloro-4-(3-chlorophenoxy)benzoyl)-2-(methoxymethyl)-2-methyl-1,2,4,7-tetrahydro-3H-pyrrolo[3′,2′:5,6]pyrido[3,4-b]pyrazin-3-one] | – | 366 nM | –
14 | 31.2 nM | 30.6 nM | COCC1(C)Nc2c(cnc3[nH]cc(C(=O)c4ccc(Oc5cc(C)ccn5)cc4Cl)c23)N(C)C1=O (stereo not drawn) [Z65, 9-(2-chloro-4-((4-methylpyridin-2-yl)oxy)benzoyl)-2-(methoxymethyl)-2,4-dimethyl-1,2,4,7-tetrahydro-3H-pyrrolo[3′,2′:5,6]pyrido[3,4-b]pyrazin-3-one formate] | – | 509 nM | –
15 | 19.8 nM | 46.1 nM | CC(=O)N1CC[C@@]2(C1)Nc1c(cnc3[nH]cc(C(=O)c4ccc(Oc5ccccc5)cc4Cl)c13)NC2=O (single isomer, unassigned) [Z4-2] | 1200 nM | – | –
16 | 13.4 nM | 5.7 nM | COC1CCC2(C1)Nc1c(cnc3[nH]cc(C(=O)c4ccc(Oc5cc(C)ccn5)cc4Cl)c13)NC2=O (stereo not drawn) [Z126, 9′-(2-chloro-4-((4-methylpyridin-2-yl)oxy)benzoyl)-3-methoxy-4′,7′-dihydrospiro[cyclopentane-1,2′-pyrrolo[3′,2′:5,6]pyrido[3,4-b]pyrazin]-3′(1′H)-one] | – | 183 nM | –
17 | 20.6 nM | 34 nM | N#C[C@H]1CC[C@@]2(C1)Nc1c(cnc3[nH]cc(C(=O)c4ccc(Oc5ccccc5)cc4Cl)c13)NC2=O (single isomer, unassigned) [Z26-3] | 216 nM | – | –
18 | 18.3 nM | 40 nM | CCOCC1(C)Nc2c(cnc3[nH]cc(C(=O)c4ccc(Oc5ccccc5)cc4Cl)c23)NC1=O (stereo not drawn) [Z67, 9-(2-chloro-4-phenoxybenzoyl)-2-(ethoxymethyl)-2-methyl-1,2,4,7-tetrahydro-3H-pyrrolo[3′,2′:5,6]pyrido[3,4-b]pyrazin-3-one] | – | 262 nM | –
19 | 4.9 nM | 6 nM | COC1CCC2(C1)Nc1c(cnc3[nH]cc(C(=O)c4ccc(Oc5ccccc5)cc4Cl)c13)NC2=O (stereo not drawn) [Z25, 9′-(2-chloro-4-phenoxybenzoyl)-3-methoxy-4′,7′-dihydrospiro[cyclopentane-1,2′-pyrrolo[3′,2′:5,6]pyrido[3,4-b]pyrazin]-3′(1′H)-one] | – | 130 nM | –
20 | 9.3 nM | 16.4 nM | [2H]C([2H])([2H])OCC1(C)Nc2c(cnc3[nH]cc(C(=O)c4ccc(Oc5ccccc5)cc4Cl)c23)NC1=O (stereo not drawn) [Z66, 9-(2-chloro-4-phenoxybenzoyl)-2-((methoxy-d3)methyl)-2-methyl-1,2,4,7-tetrahydro-3H-pyrrolo[3′,2′:5,6]pyrido[3,4-b]pyrazin-3-one] | – | 146 nM | –
21 | 23.2 nM | 40 nM | COC[C@@]1(C)Nc2c(cnc3[nH]cc(C(=O)c4ccc(Oc5ccccc5)cc4Cl)c23)NC1=O [Z13-2] | 183 nM | – | –

Row | Compound | IC50 (BTK (C481S)) | IC50 (BTK) | IC50 (TMD-8 cells) | IC50 (TMD-8 cells; Homo sapiens, TMD8, 72 h) | IC50 (TMD-8 cells; TMD8, 72 h)
22 | COC[C@]1(C)Nc2c(cnc3[nH]cc(C(=O)c4ccc(Oc5cccc(C)n5)cc4Cl)c23)NC1=O [Z124-1, (S)-9-(2-chloro-4-((6-methylpyridin-2-yl)oxy)benzoyl)-2-(methoxymethyl)-2-methyl-1,2,4,7-tetrahydro-3H-pyrrolo[3′,2′:5,6]pyrido[3,4-b]pyrazin-3-one] | 30.1 nM | 24.5 nM | – | – | 199 nM
23 | CN1CCC2(C1)Nc1c(cnc3[nH]cc(C(=O)c4ccc(Oc5cc(C(F)(F)F)ccn5)cc4Cl)c13)NC2=O (stereo not drawn) [Z12] | 45.8 nM | 26.4 nM | 480 nM | – | –
